Data: patent US20240139235A1, “IRON(III) FORMULATIONS FOR THE TREATMENT OF GASTROINTESTINAL INFLAMMATION” (PHARMANUTRA S.P.A., priority 2021, published 2024)

Assays:
Type in all cases: in vivo
[1] = Body weight of mice on iron diets; conditions: C57BL/6 male mice, diet 50 mg/kg iron for two weeks; comparison of ID, FS and SI groups (FIG. 1A)
Protocol: (§1) Thirty C57BL/6 male mice at four weeks of age were subjected to an iron deficient diet (based on the AIN-93G rodent diet, ˜1 mg kg of iron). All mice were bred in the same environment (QIMR Berghofer Animal Facility) to minimise the inherent variability in the microbiome between individual mice.
(§2) After faecal collection at six weeks of age, mice were switched from an iron deficient diet to a diet containing 50 mg/kg of iron such as ferrous sulfate (iron (II) sulfate) or Sucrosomial® iron (ten mice per group).
The remaining ten mice were a control group that remained on the deficient diet.
Faecal samples were then collected from each mouse at eight weeks of age (i.e. two weeks with diets containing iron), the mice sacrificed and the tissues collected for analysis. Liver and serum samples were collected from each animal after euthanasia and stored at −80° C. Haematological parameters were evaluated immediately after euthanasia using a “Coulter Ac-T diff Hematology Analyzer” (Beckman Coulter, Gladesville, NSW, Australia). Serum iron parameters, analysed using the Iron/TIBC Reagent Kit (Pointe Scientific, Canton, MI), and iron levels in tissues were determined as described above [Frazer, D. M., et al. Cell Mol Gastroenterol Hepatol 3, 410-421 (2017)]. […] DNA was extracted from the faecal samples and the microbial profile (QIMR Berghofer Medical Research Institute) was determined. […]

[2] = Iron status and haematological parameters of mice fed iron diets; conditions: C57BL/6 male mice, diet 50 mg/kg iron for two weeks
Protocol: as §1, §2
Faecal samples were then collected from each mouse at eight weeks of age (i.e. two weeks with diets containing iron), the mice sacrificed and the tissues collected for analysis. Liver and serum samples were collected from each animal after euthanasia and stored at −80° C. Haematological parameters were evaluated immediately after euthanasia using a “Coulter Ac-T diff Hematology Analyzer” (Beckman Coulter, Gladesville, NSW, Australia). […] For the analysis of iron and haematological parameters, the statistical differences between the groups were calculated using the unidirectional ANOVA followed by the Tukey post-hoc test for the groups with equal variance or by the Games-Howell post-hoc test for those with unequal variance. Significant differences in variance were identified using the Levene test. DNA was extracted from the faecal samples and the microbial profile (QIMR Berghofer Medical Research Institute) was determined.
• ID: control group, maintained on iron deficient diet (about 1 mg/kg iron). • FS: group fed with diet containing 50 mg/kg of iron in the form of ferrous sulfate (FS abbreviation for ferrous sulfate)—Fe(II). • SI: group fed with diet containing 50 mg/kg of iron in the form of Sucrosomial® iron (SI abbreviation for sucrosomial iron)—Fe(III).
After being sacrificed at the age of eight weeks, iron levels in the liver and in the serum, as well as the haematological parameters of mice of the three groups under analysis (ID, FS and SI) were examined.

gut microbiome of mice = assay: Faecal microbiome diversity (beta and alpha diversity) in mice; conditions: faecal samples, two weeks on diet 50 mg/kg iron
Protocol: as §1
(§3) At six weeks of age (i.e. two weeks with an iron deficient diet), faeces were collected for microbiome analysis. This was the control sample for each mouse and it represents the basic microbiome of that particular animal when the lumen is iron deficient. […]
Faecal samples were then collected from each mouse at eight weeks of age (i.e. two weeks with diets containing iron), the mice sacrificed and the tissues collected for analysis. […] Haematological parameters were evaluated immediately after euthanasia using a “Coulter Ac-T diff Hematology Analyzer” (Beckman Coulter, Gladesville, NSW, Australia). Serum iron parameters, analysed using the Iron/TIBC Reagent Kit (Pointe Scientific, Canton, MI), and iron levels in tissues were determined as described above [Frazer, D. M., et al. Cell Mol Gastroenterol Hepatol 3, 410-421 (2017)]. […] DNA was extracted from the faecal samples and the microbial profile (QIMR Berghofer Medical Research Institute) was determined.

Bacteroidota = assay: Faecal microbiome changes at phylum level: Bacteroidota; conditions: faecal samples, mice, two weeks on diet 50 mg/kg iron vs baseline (FIG. 5)
Protocol: as §1, §3
(§4) Faecal samples were then collected from each mouse at eight weeks of age (i.e. two weeks with diets containing iron), the mice sacrificed and the tissues collected for analysis. […] Haematological parameters were evaluated immediately after euthanasia using a “Coulter Ac-T diff Hematology Analyzer” (Beckman Coulter, Gladesville, NSW, Australia). Serum iron parameters, analysed using the Iron/TIBC Reagent Kit (Pointe Scientific, Canton, MI), and iron levels in tissues were determined as described above [Frazer, D. M., et al. Cell Mol Gastroenterol Hepatol 3, 410-421 (2017)]. […] DNA was extracted from the faecal samples and the microbial profile (QIMR Berghofer Medical Research Institute) was determined. […]

[3] = test system: Lachnospiraceae spp, Rikenellaceae RC9, Faecalibaculum, Colidextribacter, Oscillibacter, Parasutterella, Lactobacillus; assay: Faecal microbiome changes at Amplicon Single Variant (ASV)/genus level; conditions: faecal samples, mice, two weeks on diet 50 mg/kg iron vs baseline (FIG. 6G)
Protocol: as §1, §3, §4

What does the source list for ferrous sulfate?
body weight [1]: no significant differences; iron concentration in the liver ([2]; Sucrosomial iron vs ferrous sulfate (FIG. 1B)): no significant differences; serum iron levels ([2]; Sucrosomial iron vs ferrous sulfate (FIG. 1C)): no significant differences; transferrin saturation ([2]; Sucrosomial iron vs ferrous sulfate (FIG. 1D)): no significant differences; red blood cell count ([2]; Sucrosomial iron vs ferrous sulfate (FIG. 2A)): no significant differences; haemoglobin ([2]; Sucrosomial iron vs ferrous sulfate (FIG. 2B)): no significant differences; haematocrit ([2]; Sucrosomial iron vs ferrous sulfate (FIG. 2C)): no significant differences; mean corpuscular volume ([2]; Sucrosomial iron vs ferrous sulfate (FIG. 2D)): no significant differences; Shannon index (alpha diversity) per group (gut microbiome of mice; unpaired comparison of groups (FIG. 4A)): lower; beta diversity (overall microbial composition, PCoA) (gut microbiome of mice; vs iron deficient diet (FIG. 3)): able to be distinguished from samples taken from mice on iron-deficient diets; abundance of phylum Bacteroidota, change vs baseline (Bacteroidota): significantly reduced; Lactobacillus at the genus level, change vs baseline [3]: no similar decrease
